Data from ChEMBL document CHEMBL1149577, “Rational design of 7-arylquinolines as non-competitive metabotropic glutamate receptor subtype 5 antagonists” (Bioorg Med Chem Lett, 2007).

Columns and labels:
[1] = target: T1, Metabotropic glutamate receptor 5 (Rattus norvegicus, UniProt P31424); experiment: Activity at rat mGlu5 receptor expressed in CHO cells assessed as inhibition of quisqualate-stimulated calcium mobilization by FLIPR assay; assay type: functional, cell-based
[2] = system: Rattus norvegicus; experiment: Anxiolytic activity in thirsty naive rat assessed as shock episodes at 10 mg/kg, po by Vogel assay relative to control; assay type: functional
[3] = target: T1, Metabotropic glutamate receptor 5; experiment: Displacement of [3H]MPEP from mGlu5 receptor in rat brain; assay type: tissue-based

T1 sequence (P31424 whole entry): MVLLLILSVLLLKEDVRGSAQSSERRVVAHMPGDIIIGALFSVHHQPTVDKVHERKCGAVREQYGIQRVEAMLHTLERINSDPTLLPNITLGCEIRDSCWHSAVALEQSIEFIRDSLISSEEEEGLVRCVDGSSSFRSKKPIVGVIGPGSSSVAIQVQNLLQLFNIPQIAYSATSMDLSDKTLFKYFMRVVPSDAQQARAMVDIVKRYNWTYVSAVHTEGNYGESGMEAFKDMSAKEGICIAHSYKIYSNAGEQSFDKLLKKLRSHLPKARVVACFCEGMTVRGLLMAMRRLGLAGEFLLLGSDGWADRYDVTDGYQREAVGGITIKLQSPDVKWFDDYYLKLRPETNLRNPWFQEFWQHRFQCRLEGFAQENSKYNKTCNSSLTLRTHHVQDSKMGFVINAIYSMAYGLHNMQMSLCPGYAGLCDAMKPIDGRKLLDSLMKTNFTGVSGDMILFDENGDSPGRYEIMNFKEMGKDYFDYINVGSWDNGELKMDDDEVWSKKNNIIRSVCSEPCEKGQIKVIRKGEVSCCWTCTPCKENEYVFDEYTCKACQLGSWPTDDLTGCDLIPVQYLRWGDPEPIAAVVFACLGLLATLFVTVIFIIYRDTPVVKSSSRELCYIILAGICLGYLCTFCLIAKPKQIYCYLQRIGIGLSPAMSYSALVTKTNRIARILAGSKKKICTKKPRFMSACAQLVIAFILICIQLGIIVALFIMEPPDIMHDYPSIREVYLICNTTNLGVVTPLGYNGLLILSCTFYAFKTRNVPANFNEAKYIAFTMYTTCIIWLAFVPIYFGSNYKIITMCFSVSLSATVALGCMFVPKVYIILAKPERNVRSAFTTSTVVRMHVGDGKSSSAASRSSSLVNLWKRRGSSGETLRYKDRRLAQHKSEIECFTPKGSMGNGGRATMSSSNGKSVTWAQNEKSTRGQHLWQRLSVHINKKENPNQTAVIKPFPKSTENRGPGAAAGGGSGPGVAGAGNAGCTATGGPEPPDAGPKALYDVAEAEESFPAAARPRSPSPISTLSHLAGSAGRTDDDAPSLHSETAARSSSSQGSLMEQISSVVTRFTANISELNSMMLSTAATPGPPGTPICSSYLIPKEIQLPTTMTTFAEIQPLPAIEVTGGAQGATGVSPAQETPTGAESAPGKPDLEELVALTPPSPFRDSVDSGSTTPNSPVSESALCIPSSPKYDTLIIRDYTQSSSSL

## Cc1ccc2ccc(-c3cc(Cl)cc(C#N)c3)cc2n1
[1]
  IC50: 1.4 nM

## Cc1cc(C#N)cc(-c2ccc3ccc(C)nc3c2)c1
[1]
  IC50: 1.6 nM

## CCSc1cc(C#N)cc(-c2ccc3ccc(C)nc3c2)c1
[1]
  IC50: 72 nM

## Cc1ccc2ccc(-c3cc(C#N)cc(OC(C)C)c3)cc2n1
[1]
  IC50: 310 nM

## Cc1ccc2ccc(-c3cc(C#N)cc(OCC(C)C)c3)cc2n1
[1]
  IC50: 12000 nM

## CC(=O)c1cccc(-c2ccc3ccc(C)nc3c2)c1
[1]
  IC50: 4760 nM

## Cc1ccc2ccc(-c3cccnc3)cc2n1
[1]
  IC50: 510 nM

## CCOc1cc(C#N)cc(-c2ccc3ccc(C)nc3c2)c1
[1]
  IC50: 17 nM

## COc1ccccc1-c1ccc2ccc(C)nc2c1
[1]
  IC50: 4200 nM

## COCc1cccc(-c2ccc3ccc(C)nc3c2)c1
[1]
  IC50: 5800 nM

## Cc1cccc(C#Cc2ccccc2)n1
[2]
  Activity: 80%

## Cc1ccc2ccc(-c3cc(Br)cc(C#N)c3)cc2n1
[1]
  IC50: 13 nM

## Cc1ccc2ccc(-c3ccccc3)cc2n1
[1]
  IC50: 9000 nM

## Cc1ccc2ccc(-c3cccc(CO)c3)cc2n1
[1]
  IC50: 8700 nM

## Cc1ccc2ccc(-c3cccc(F)c3)cc2n1
[1]
  IC50: 1800 nM

## Cc1ccc2ccc(-c3cc(F)cc(C#N)c3)cc2n1
[1]
  IC50: 0.8 nM
[3]
  Ki: 22 nM
[2]
  Activity: 100%

## Cc1ccc2ccc(-c3ccc(C#N)cc3)cc2n1
[1]
  IC50: > 10000 nM

## Cc1ccc2ccc(-c3cc(C#N)cc(OC(F)(F)F)c3)cc2n1
[1]
  IC50: 75 nM

## COc1cc(C#N)cc(-c2ccc3ccc(C)nc3c2)c1
[1]
  IC50: 2.4 nM

## COc1cccc(-c2ccc3ccc(C)nc3c2)c1
[1]
  IC50: 860 nM

## Cc1ccc2ccc(-c3cc(C#N)cc(C#N)c3)cc2n1
[1]
  IC50: 2 nM

## COc1ccc(-c2ccc3ccc(C)nc3c2)cc1
[1]
  IC50: 16000 nM

## Cc1ccc2ccc(-c3cccc(C(F)(F)F)c3)cc2n1
[1]
  IC50: > 10000 nM

## COCc1cc(C#N)cc(-c2ccc3ccc(C)nc3c2)c1
[1]
  IC50: 2 nM

## Cc1ccc2ccc(-c3cccc(OC(F)(F)F)c3)cc2n1
[1]
  IC50: > 10000 nM

## Cc1ccc2ccc(-c3cccc(C(N)=O)c3)cc2n1
[1]
  IC50: > 10000 nM

## Cc1ccc2ccc(-c3cccc(C#N)c3)cc2n1
[1]
  IC50: 7.7 nM
[3]
  Ki: 72 nM

## COCCOc1cc(C#N)cc(-c2ccc3ccc(C)nc3c2)c1
[1]
  IC50: 82 nM

## Cc1ccc2ccc(-c3cc(O)cc(C#N)c3)cc2n1
[1]
  IC50: 360 nM

## Cc1ccc2ccc(-c3ccccc3C#N)cc2n1
[1]
  IC50: 9800 nM

## Cc1ccc2ccc(-c3cncc(C#N)c3)cc2n1
[1]
  IC50: 23 nM

## Cc1ccc2ccc(-c3cccc(O)c3)cc2n1
[1]
  IC50: 19000 nM

## Cc1ccc2ccc(-c3cccc(Cl)c3)cc2n1
[1]
  IC50: 14000 nM

## CCS(=O)(=O)c1cc(C#N)cc(-c2ccc3ccc(C)nc3c2)c1
[1]
  IC50: 1090 nM

## Cc1ccc2ccc(-c3cccc(CC#N)c3)cc2n1
[1]
  IC50: 430 nM

## Cc1cccc(-c2ccc3ccc(C)nc3c2)c1
[1]
  IC50: 3400 nM
